Measurements taken from patent EP4585216A1, “HETEROCYCLIC COMPOUNDS FOR THE TREATMENT OF FATTY LIVER DISEASE” (ScandiEdge Therapeutics AB, priority 2024, dated 2025).
Each block holds one compound with its values, some of them ahead of it.

Assays:
pyruvate kinase (PK) [1] = test: Pyruvate kinase activity in treated HepG2 WT cells; type: cell-based; settings: 10 µM for 4 h; for effect on PK activity in HepG2 WT cells (in words): compared to the control
Experimental: (§1) HepG2 WT and HepG2 KO cells were lysed, and protein lysate was prepared with CelLytic M (C2978, Sigma-Aldrich) lysis buffer. Protein lysate was treated with 10 µM of the drugs and the pyruvate kinase activity on protein lysate was measured using Pyruvate Kinase Assay Kit (ab83432, abeam) following manufacturer's instruction. 2×10^4 HepG2 WT cells and 1×10^5 HepG2 KO cells were seeded into a 96-well plate for measuring pyruvate kinase activity in the cells. The cells were treated with 10-20µM of drugs for 4h and washed with 250µl PBS. Cells were lysed with 50 µl PK assay buffer (ab83432, abcam) and start reaction and kinetic O.D measurement was performed on 50µl PK assay buffer containing the assay component (ab83432, abcam). O.D values were measured with microplate reader (Hidex Sense Beta Plus) at 570nm wavelength. DMSO was used as control.
(§2) The effect of the target compounds was studied on liver cell line HepG2. HepG2 expresses two different pyruvate kinases (PK), pyruvate kinase muscle (PKM2) and pyruvate kinase liver (PKL). While most cells express PKM, liver cells further express PKL. […] In addition to HepG2 KO cell, HepG2 wild-type (HepG2 WT) cells were also used.

[2] = biological target: T1, pyruvate kinase liver (PKL) (Homo sapiens, UniProt P30613); test: Pyruvate kinase activity in treated HepG2 PKM2 CRISPR KO cells; type: cell-based; settings: 10 µM for 4 h; for effect on PK activity in HepG2 KO cells (in words): compared to the control
T1 construct: endogenous in cells; host or cells: HepG2 PKM2 CRISPR KO (HepG2 KO) cells; lysate in CelLytic M or treated whole cells
Experimental: as §1, §2

pyruvate kinase (PK) [3] = test: Pyruvate kinase activity in HepG2 WT protein lysate; type: biochemical; settings: 10 µM; for reduction in PK activity of HepG2 WT protein lysate: compared to the control (DMSO); for PK activity of HepG2 WT protein lysate (in words): batches 4 and 5
Experimental: as §1, §2

[4] = biological target: T1, pyruvate kinase liver (PKL); test: Pyruvate kinase activity in HepG2 PKM2 CRISPR KO protein lysate; type: biochemical; settings: for inhibition at 10 µM / reduction in PK activity of HepG2 KO protein lysate: compared to the control (DMSO); for inhibition at 10 µM: read-out: reduction in PK activity of HepG2 KO protein lysate; for reduction in PK activity of HepG2 KO protein lysate / PK activity of HepG2 KO protein lysate (in words): 10 µM; for PK activity of HepG2 KO protein lysate (in words): batches 4 and 5
Experimental: as §1, §2

HepG2 cells = test: TAG measurement in DNL steatosis model; type: cell-based; settings: for reduction in TAG/MTT ratio / TAG content (in words): 10 µM for 1 week; for reduction in TAG/MTT ratio: compared to the control (DMSO)
Experimental: HepG2 wild type cells were purchased from genome engineering company Synthego. Cells were maintained with growth media RPMI 1640 (R2405, Sigma-Aldrich) and supplemented with 10 % fetal bovine serum (FBS, F7524, Sigma-Aldrich), 1 % penicillin-streptomycin (P/S media, P4333, Sigma-Aldrich). Steatosis induction media was prepared as DMEM high glucose (D0819, Sigma-Aldrich) with 10% FBS, 1% P/S media supplemented with 10µg/ml insulin (I9278, Sigma-Aldrich), and 10µM T0901317 (T2320, Sigma-Aldrich) for one week. HepG2 cells were seeded 6×10^4 cells per well into a 96-well plate for TAG and MTT assay after steatosis and 1×10^6 cells per well into 6-well plate for western blot analysis after steatosis. HepG2 cells were incubated with steatosis induce media (SM) for one week by 3 day + 2 day + 2 day with total three times media exchange.
HepG2 cells were seeded at 6×10^4 cells per well into 96-well plate and induced steatosis for one week with designated concentration of small molecules (this will be referred to as a DNL steatosis model). After steatosis induction, cells were washed with 200 µl of PBS and triglyceride contents was measured by Triglyceride Assay Kit - Quantification (ab65336, Abeam) following manufacturer's instruction. Optical density (O.D) values were detected with microplate reader at 570 nm (Hidex Sense Beta Plus).
5 mg/ml MTT (M2128, Sigma-Aldrich) solution in PBS (10 µL) was added to each well for MTT assay. After 1 hr, MTT solution and all media were removed from the wells. 100 µl of DMSO was added and mixed to dissolve the formazan crystals. Cell viability was analysed by measuring the absorbance of the dissolved formazan in a microplate reader at a wavelength of 570 nm with microplate reader (Hidex Sense Beta Plus). DMSO was used as control.

T1 sequence (P30613 1-543 isoform P30613-2): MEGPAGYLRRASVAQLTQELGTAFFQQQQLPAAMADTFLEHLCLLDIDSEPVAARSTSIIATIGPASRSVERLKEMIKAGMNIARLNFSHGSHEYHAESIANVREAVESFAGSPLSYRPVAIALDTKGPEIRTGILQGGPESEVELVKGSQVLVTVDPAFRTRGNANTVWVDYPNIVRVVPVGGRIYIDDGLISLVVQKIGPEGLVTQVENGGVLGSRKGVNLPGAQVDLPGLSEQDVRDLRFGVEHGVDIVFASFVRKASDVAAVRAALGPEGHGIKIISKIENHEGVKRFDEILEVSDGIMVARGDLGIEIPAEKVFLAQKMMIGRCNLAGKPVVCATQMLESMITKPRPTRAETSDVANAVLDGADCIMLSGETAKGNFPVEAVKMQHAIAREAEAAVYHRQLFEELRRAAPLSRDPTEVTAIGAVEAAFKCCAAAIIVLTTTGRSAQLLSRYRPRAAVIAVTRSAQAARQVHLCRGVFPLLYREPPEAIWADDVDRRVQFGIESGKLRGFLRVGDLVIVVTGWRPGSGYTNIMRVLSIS

effect on PK activity in HepG2 KO cells (in words) [2]: did not affect the PK activity
SMILES: COc1cc2c(cc1OC)N(Cc1ccccc1)S(=O)(=O)c1cc(OC)c(OC)cc1-2 [SET-08, 6-benzyl-2,3,8,9-tetramethoxy-6H-dibenzo[c,e][1,2]thiazine 5,5-dioxide]
effect on PK activity in HepG2 WT cells (in words) (pyruvate kinase (PK) [1]): did not affect the PK activity

reduction in PK activity of HepG2 WT protein lysate (pyruvate kinase (PK) [3]): 42.6% | inhibition at 10 µM [4]: 70.2%
SMILES: O=S1(=O)c2cc(O)c(O)cc2-c2cc(O)c(O)cc2N1Cc1ccccc1 [SET-09, 6-benzyl-2,3,8,9-tetrahydroxy-6H-dibenzo[c,e][1,2]thiazine 5,5-dioxide]
reduction in TAG/MTT ratio (HepG2 cells): 21.3%

reduction in PK activity of HepG2 WT protein lysate (pyruvate kinase (PK) [3]): 28.7% | inhibition at 10 µM [4]: 29.4% | effect on PK activity in HepG2 KO cells (in words) [2]: did not affect the PK activity
SMILES: O=S1(=O)Nc2cc(O)c(O)cc2-c2cc(O)c(O)cc21 [SET-10, 2,3,8,9-tetrahydroxy-6H-dibenzo[c,e][1,2]thiazine 5,5-dioxidee]
effect on PK activity in HepG2 WT cells (in words) (pyruvate kinase (PK) [1]): did not affect the PK activity

reduction in PK activity of HepG2 WT protein lysate (pyruvate kinase (PK) [3]): 15.8% | inhibition at 10 µM [4]: 70.2%
SMILES: O=S(=O)(NCc1ccc(F)cc1)c1cc(O)c(O)cc1-c1ccc(O)c(O)c1 [SET-13, N-(4-fluorobenzyl)-3',4,4',5-tetrahydroxy-[1,1'-biphenyl]-2-sulfonamide]
reduction in TAG/MTT ratio (HepG2 cells): 21.9%

reduction in PK activity of HepG2 WT protein lysate (pyruvate kinase (PK) [3]): 25.4% | inhibition at 10 µM [4]: 59.1%
SMILES: O=S(=O)(NCc1ccccc1)c1cc(O)c(O)cc1-c1ccc(O)c(O)c1 [SET-15, N-benzyl-3',4,4',5-tetrahydroxy-[1,1'-biphenyl]-2-sulfonamide]
reduction in TAG/MTT ratio (HepG2 cells): 26.8%

inhibition at 10 µM ([2]; HepG2, read-out: inhibition of PK activity in HepG2 KO cells): 7.5%
SMILES: COc1ccc(CN2c3cc(OC)c(OC)cc3-c3cc(OC)c(OC)cc3S2(=O)=O)cc1 [SET-18, 2,3,8,9-tetramethoxy-6-(4-methoxybenzyl)-6H-dibenzo[c,e][1,2] thiazine 5,5-dioxide]
inhibition of PK activity in HepG2 WT cells (pyruvate kinase (PK) [1]): 6.2%

inhibition at 10 µM [4]: 8%
SMILES: COc1cc(-c2ccc(C(F)(F)F)cc2)c(S(=O)(=O)NCc2ccccc2)cc1OC [SET-26, N-benzyl-4,5-dimethoxy-4'-(trifluoromethyl)-[1,1'-biphenyl]-2-sulfonamide]

inhibition at 10 µM [4]: 4.3%
SMILES: COc1cc(Br)c(S(=O)(=O)NCc2cn(CC(=O)c3ccccc3)nn2)cc1OC [SET-27A, 2-bromo-4,5-dimethoxy-N-((1-(2-xox-2-phenylethyl)-1H-1,2,3-triazol-4-yl)methyl) benzenesulfonamide]

inhibition at 10 µM [4]: 4.4%
SMILES: COc1cc(Br)c(S(=O)(=O)NCc2cn(Cc3ccccc3)nn2)cc1OC [SET-35A, N-((1-benzyl-1H-1,2,3-triazol-4-yl)methyl)-2-bromo-4,5-dimethoxybenzenesulfonamide]

reduction in PK activity of HepG2 WT protein lysate (pyruvate kinase (PK) [3]): 10.7% | inhibition at 10 µM [4]: 35.2%
SMILES: O=S(=O)(NCc1ccc(F)cc1)c1cc(O)c(O)cc1-c1ccc(C(F)(F)F)cc1 [SET-57, N-(4-fluorobenzyl)-4,5-dihydroxy-4'-(trifluoromethyl)-[1,1'-biphenyl]-2-sulfonamide]
TAG content (in words) (HepG2 cells): reduced TAG content | reduction in TAG/MTT ratio (HepG2 cells): 15.6%

reduction in PK activity of HepG2 WT protein lysate (pyruvate kinase (PK) [3]): 33.8% | inhibition at 10 µM [4]: 32.4%
SMILES: COc1cc2c(cc1OC)S(=O)(=O)N(Cc1ccc(F)cc1)c1cc(C(F)(F)F)ccc1-2 [SET-58, 6-(4-fluorobenzyl)-2,3-dimethoxy-8-(trifluoromethyl)-6H-dibenzo[c,e][1,2]thiazine 5,5-dioxide]
TAG content (in words) (HepG2 cells): reduced TAG content

reduction in PK activity of HepG2 WT protein lysate (pyruvate kinase (PK) [3]): 13.3% | reduction in PK activity of HepG2 KO protein lysate [4]: 11.1%
SMILES: O=S1(=O)c2cc(O)c(O)cc2-c2ccc(C(F)(F)F)cc2N1Cc1ccc(F)cc1 [SET-59, 6-(4-fluorobenzyl)-2,2-dihydroxy-8-(trifluoromethyl)-6H-dibenzo[c,e][1,2]thiazine 5,5-dioxide]
TAG content (in words) (HepG2 cells): reduced TAG content

inhibition at 10 µM [4]: 17.2%
SMILES: O=S(=O)(NCc1ccccc1)c1cc(O)c(O)cc1-c1ccc(C(F)(F)F)cc1 [SET-60, N-benzyl-4,5-dihydroxy-4'-(trifluoromethyl)-[1,1'-biphenyl]-2-sulfonamide]
TAG content (in words) (HepG2 cells): reduced TAG content | reduction in TAG/MTT ratio (HepG2 cells): 16.3%

reduction in PK activity of HepG2 WT protein lysate (pyruvate kinase (PK) [3]): 11.7% | reduction in PK activity of HepG2 KO protein lysate [4]: 8.8%
SMILES: COc1cc2c(cc1OC)S(=O)(=O)N(Cc1ccccc1)c1cc(C(F)(F)F)ccc1-2 [SET-61, 6-benzyl-2,2-dimethoxy-8-(trifluoromethyl)-6H-dibenzo[c,e][1,2]thiazine 5,5-dioxide]

PK activity of HepG2 WT protein lysate (in words) (pyruvate kinase (PK) [3]): reduced the PK activity | PK activity of HepG2 KO protein lysate (in words) [4]: reduced the PK activity
SMILES: O=S(=O)(NCc1ccc(F)cc1)c1cc(O)c(O)cc1-c1ccc(O)cc1 [SET-66B, N-(4-fluorobenzyl)-4,4',5-trihydroxy-[1,1'-biphenyl]-2-sulfonamide]
increase of the TAG/MTT ratio (HepG2 cells; 5 µM for 1 week): 6.0%

PK activity of HepG2 WT protein lysate (in words) (pyruvate kinase (PK) [3]): reduced the PK activity | PK activity of HepG2 KO protein lysate (in words) [4]: reduced the PK activity
SMILES: O=S(=O)(NCc1ccc(F)cc1)c1cc(O)c(O)cc1-c1cccc(O)c1 [SET-68B, N-(4-fluorobenzyl)-3',4,5-trihydroxy-[1,1'-biphenyl]-2-sulfonamide]

PK activity of HepG2 WT protein lysate (in words) (pyruvate kinase (PK) [3]): highest inhibitory effect
SMILES: O=S1(=O)c2cc(O)c(O)cc2-c2cc(O)ccc2N1Cc1ccc(F)cc1 [SET-68D, 6-(4-fluorobenzyl)-2,3,9-trihydroxy-6H-dibenzo[c,e][1,2]thiazine 5,5-dioxide]

PK activity of HepG2 WT protein lysate (in words) (pyruvate kinase (PK) [3]): reduced the PK activity | PK activity of HepG2 KO protein lysate (in words) [4]: reduced the PK activity
SMILES: O=S(=O)(NCc1ccccc1)c1cc(O)c(O)cc1-c1cccc(O)c1 [SET-69B, N-benzyl-3',4,5-trihydroxy-[1,1'-biphenyl]-2-sulfonamide]

PK activity of HepG2 WT protein lysate (in words) (pyruvate kinase (PK) [3]): reduced the PK activity | PK activity of HepG2 KO protein lysate (in words) [4]: reduced the PK activity
SMILES: O=S1(=O)c2cc(O)c(O)cc2-c2cc(O)ccc2N1Cc1ccccc1 [SET-69D, 6-benzyl-2,3,9-trihydroxy-6H-dibenzo[c,e][1,2]thiazine 5,5-dioxide]

SMILES: Cn1c2cc([S+](C)[O-])sc2c2cnn(Cc3cccc(N)c3)c(=O)c21 (stereo not shown) [TEPP46, reference compound]
effect on PK activity in HepG2 WT cells (in words) (pyruvate kinase (PK) [1]): increased activity
